Patent publication US9107404B2, “Method for reducing undesirable effects on turfgrass” (Ishihara Sangyo Kaisha, Ltd., priority 2010, dated 2015)

Key:
[1] = tested on: bentgrass (breed: penncross); test: Example 6: bentgrass rubbed against mascarenegrass treated with asulam plus surfactant; conditions: in vivo
Protocol: Soil was put into a 1/300,000 ha pot, and mascarenegrass were cultivated. Further, soil was put into a 1/1,000,000 ha pot, and bentgrass (breed: penncross) was cultivated. A predetermined amount (asulam: 4625 g a.i./ha) of a treating liquid containing asulam as an active component (tradename: Arsilan liquid preparation, manufactured by Ishihara Sangyo Kaisha, Ltd.) was diluted with water containing a predetermined amount of Maku-pika (tradename, the same as in Example 1), and applied by foliar treatment to the mascarenegrass by a small spraygun so that the amount of the treating liquid corresponds to 2,000 L/ha. Upon expiration of 6 hours after the treatment, the bentgrass not treated with asulam was rubbed against the mascarenegrass treated therewith (the pot of bentgrass was permitted to slide and reciprocate once).
On 12th day after the treatment with asulam, the state of growth of the bentgrass was evaluated in the same manner as in Example 3, and the growth inhibition rate and the degree of discoloring are shown in Table 9. Further, as comparative areas, an area wherein Kusa-rino (tradename, the same as in Example 1) was used, and an area wherein no surfactant was used, were provided.

[2] = tested on: bentgrass (breed: penncross); test: Example 5: bentgrass rubbed against mascarenegrass treated with trifloxysulfuron sodium salt plus surfactant; format: in vivo; conditions: trifloxysulfuron sodium salt 45 g a.i./ha, spreading agent not added, rubbed 6 hours after treatment, 12th day
Protocol: (§1) Soil was put into a 1/300,000 ha pot, and mascarenegrass was cultivated. Further, soil was put into a 1/1,000,000 ha pot, and bentgrass (breed: penncross) was cultivated. A predetermined amount (trifloxysulfuron sodium salt: 45 g a.i./ha) of water dispersible granules containing trifloxysulfuron sodium salt as an active ingredient (tradename: Monument water dispersible granules, manufactured by Syngenta Japan K.K.) was diluted with water containing a predetermined amount of Maku-pika (tradename, the same as in Example 1) and applied by foliar treatment to the mascarenegrass by a small spraygun, so that the amount of the treating liquid corresponds to 2,000 L/ha. Upon expiration of 6 hours after the treatment, the bentgrass not treated with trifloxysulfuron sodium salt, was rubbed against the mascarenegrass treated therewith (the pot of bentgrass was permitted to slide and reciprocate once).
On 12th day after the treatment with trifloxysulfuron sodium salt, the state of growth of the bentgrass was evaluated in the same manner as in Example 3, and the growth inhibition rate and the degree of discoloring are shown in Table 8. Further, as comparative areas, an area wherein Kusa-rino (tradename, the same as in Example 1) was used, and an area wherein no surfactant was used, were provided.

[3] = tested on: bentgrass (breed: penncross); test: Example 7: bentgrass rubbed against mascarenegrass treated with rimsulfuron plus surfactant; conditions: in vivo
Protocol: as §1, with “(rimsulfuron: 35.25” for “(trifloxysulfuron sodium salt: 45”, “rimsulfuron” for “trifloxysulfuron sodium salt”, “Hurley DF,” for “Monument water dispersible granules,”, “MARUWA Biochemical Co., Ltd.)” for “Syngenta Japan K.K.)”, “rimsulfuron” for “trifloxysulfuron sodium salt,”
On 13th day after the treatment with rimsulfuron, the state of growth of the bentgrass was evaluated in the same manner as in Example 3, and the growth inhibition rate and the degree of discoloring are shown in Table 10. Further, as comparative areas, an area wherein Kusa-rino (tradename, the same as in Example 1) or Surfactant WK (tradename, manufactured by MARUWA Biochemical Co., Ltd.) was used, and an area wherein no surfactant was used, were provided.

[4] = tested on: bentgrass (breed: penncross); test: Example 1: bentgrass pot rubbed against mascarenegrass treated with flazasulfuron plus surfactant; conditions: in vivo
Protocol: Soil was put into a 1/300,000 ha pot, and mascarenegrass was cultivated. Further, soil was put into a 1/1,000,000 ha pot, and bentgrass (breed: penncross) was cultivated. A predetermined amount (flazasulfuron: 50 g a.i./ha) of water dispersible granules (tradename: SHIBAGEN DF, manufactured by Ishihara Sangyo Kaisha, Ltd.) containing flazasulfuron as an active ingredient, was diluted with water containing a predetermined amount of a silicone surfactant (tradename: Maku-pika, manufactured by Ishihara Sangyo Kaisha, Ltd.) and applied by foliar treatment to the mascarenegrass by a small spraygun so that the amount of the treating liquid corresponds to 2,000 L/ha. Immediately after the treatment or upon expiration of 6 hours after the treatment, the bentgrass not treated with flazasulfuron was rubbed against the mascarenegrass treated with flazasulfuron (the pot of bentgrass was permitted to slide and reciprocate once).
On 14th day after the treatment with flazasulfuron, the state of growth of the bentgrass was visually observed and investigated, and the growth inhibition rate and the degree of necrosis evaluated in accordance with the following standards are shown in Tables 1 and 2. […]

[5] = tested on: bentgrass (breed: Minakuru); test: Example 4: field test, tester walked on flazasulfuron-treated mascarenegrass, then stepped on bentgrass; conditions: in vivo
Protocol: On ground, mascarenegrass in 50 m^2 (2 m×25 m) and bentgrass (breed: Minakuru) in 0.12 m^2 (0.35 m×0.35 m) were respectively cultivated. A predetermined amount (flazasulfuron: 100 g a.i./ha) of a wettable powder containing flazasulfuron as an active ingredient (tradename: SHIBAGEN WP, manufactured by Ishihara Sangyo Kaisha, Ltd.) was diluted with water containing a predetermined amount of a silicone surfactant (tradename: Silwet L-77, manufactured by Witco) and applied by foliar treatment to the mascarenegrass by a knapsack power sprayer so that the amount of the treating liquid corresponds to 2,000 L/ha. After the treating liquid dried, a tester walked (100 m) on the mascarenegrass treated with flazasulfuron, then walked (10 m) on mascarenegrass not treated with flazasulfuron and then stepped on five times on the bentgrass.
On 11th day after the treatment with flazasulfuron, the state of growth of the bentgrass was evaluated in the same manner as in Example 3, and the growth inhibition rate and the degree of discoloring are shown in Table 7. Further, as comparative areas, an area wherein Kusa-rino (tradename, the same as in Example 1) was used, and an area wherein no surfactant was used, were provided.

[6] = tested on: bentgrass (breed: penncross); test: Example 2: tester walked on flazasulfuron-treated Japanese lawngrass, then stepped on bentgrass; conditions: in vivo, 21 day
Protocol: Japanese lawngrass was cultivated on ground in 0.6 m^2 (0.4 m×1.5 m). Further, soil was put into a 1/300,000 ha pot, and bentgrass (breed: penncross) was cultivated. A predetermined amount (flazasulfuron: 50 g a.i./ha) of SHIBAGEN DF (tradename, the same as in Example 1) was diluted with water containing a predetermined amount of Maku-pika (tradename, the same as in Example 1) and applied by foliar treatment to the Japanese lawngrass by a small spraygun so that the amount of the treating liquid corresponds to 2,000 L/ha. Immediately after the treatment or upon expiration of 3 hours after the treatment, a tester walked (5 steps) on the Japanese lawngrass treated with flazasulfuron and then stepped on the bentgrass.
On 21st day after treatment with flazasulfuron, the state of growth of the bentgrass was evaluated in the same manner as in Example 1, and the growth inhibition rate is shown in Tables 3 and 4. Further, as comparative areas, an area wherein Kusa-rino (tradename, the same as in Example 1) was used, and an area wherein no surfactant was used, were provided.

[7] = tested on: bentgrass (breed: penncross); test: Example 10: bentgrass rubbed against mascarenegrass treated with flazasulfuron plus surfactant (Breakthru); conditions: in vivo
Protocol: Soil was put into a 1/300,000 ha pot, and mascarenegrass was cultivated. Further, soil was put into a 1/1,000,000 ha pot, and bentgrass (breed: penncross) was cultivated. A predetermined amount (flazasulfuron: 50 g a.i./ha) of SHIBAGEN DF (tradename, the same as in Example 1) was diluted with water containing a predetermined amount of a silicone surfactant (tradename: Breakthru, manufactured by Sankei Chemical Co., Ltd.) and applied by foliar treatment to the mascarenegrass by a small spraygun, so that the amount of the treating liquid corresponds to 2,000 L/ha. Upon expiration of 6 hours after the treatment, the bentgrass not treated with flazasulfuron, was rubbed against the mascarenegrass treated therewith (the pot of bentgrass was permitted to slide and reciprocate once).
On 21st day after the treatment with flazasulfuron, the state of growth of the bentgrass was evaluated in the same manner as in Example 3, and the growth inhibition rate and the degree of discoloring are shown in Table 13. Further, as comparative areas, an area wherein Kusa-rino (tradename, the same as in Example 1) was used, and an area wherein no surfactant was used, were provided.

## COC(=O)NS(=O)(=O)c1ccc(N)cc1 [asulam]
[1]
  Bentgrass Discoloring: 2.5
[1]; penncross, bentgrass, 12 day
  Bentgrass Growth inhibition rate: 45%

## COc1cc(OC)nc(NC(=O)[N-]S(=O)(=O)c2ncccc2OCC(F)(F)F)n1.[Na+] [trifloxysulfuron sodium salt]
[2]
  Bentgrass Growth inhibition rate: 60%
[2]; degree 0-5.0
  Bentgrass Discoloring: 1.5

## CCS(=O)(=O)c1cccnc1S(=O)(=O)NC(=O)Nc1nc(OC)cc(OC)n1 [rimsulfuron]
[3]
  Bentgrass Discoloring: 1.0
[3]; penncross, bentgrass, 13 day
  Bentgrass Growth inhibition rate: 35%

## COc1cc(OC)nc(NC(=O)NS(=O)(=O)c2ncccc2C(F)(F)F)n1 [flazasulfuron]
[4]
  Bentgrass Necrosis: 0.8
[4]; penncross, bentgrass, 14 day
  Bentgrass Growth inhibition rate (%): 48%
[5]; Minakuru, bentgrass, 11 day
  Bentgrass Growth inhibition rate (%): 28%
[5]
  Bentgrass Discoloring: 1.0
[6]
  Bentgrass Growth inhibition rate (%): 30%
[7]
  Bentgrass Discoloring: 0.5
[7]; penncross, bentgrass, 21 day
  Bentgrass Growth inhibition rate: 57%
